Measurements published in patent EP4603105A1, “PHARMACEUTICAL COMPOSITION CONTAINING CYCLIC COMPOUND HAVING SELECTIVE KRAS INHIBITORY EFFECT AGAINST HRAS AND NRAS” (CHUGAI SEIYAKU KABUSHIKI KAISHA, priority 2022, dated 2024).
pIC50: −log10 of the molar value. Where a SMILES comes first, the peptide text is derived from it. Bridges are numbered along the chain shown (N, C = ends). [ ]: non-standard residue; d: D form. The star is where a group is joined. hPhe(3,5-F2-4-CF3) = N[C@@H](CCc1cc(F)c(C(F)(F)F)c(F)c1)C(=O)O; hPhe(3-Cl-4-CF3) = N[C@@H](CCc1ccc(C(F)(F)F)c(Cl)c1)C(=O)O; NPrPhe(4-CF3) = CCCN[C@@H](Cc1ccc(C(F)(F)F)cc1)C(=O)O; Pip(4,4-F2) = O=C(O)[C@@H]1CC(F)(F)CCN1; NMeGly(cPent) = CN[C@H](C(=O)O)C1CCCC1; NMeD = CN[C@@H](CC(=O)O)C(=O)O; Ac4c(3-oxa) = NC1(C(=O)O)COC1; NMeL = CN[C@@H](CC(C)C)C(=O)O; Morpholide = C1CN(*)CCO1; NMeA = CN[C@@H](C)C(=O)O; Ac5c = NC1(C(=O)O)CCCC1; Aze = O=C(O)[C@@H]1CCN1; Ac4c = NC1(C(=O)O)CCC1; Sar = CNCC(=O)O

What was measured:
[1] = molecular target: GDP-bound NRAS wild-type protein (Homo sapiens, UniProt P01111); assay: Binding to NRAS by surface plasmon resonance (SPR), KD and KD ratio to KRAS
Method: Surface plasmon resonance was used to analyze the binding affinity of compounds for KRAS, NRAS, and HRAS. The apparatus used was Biacore 8K, 8K+, or T200 (GE Healthcare), and the running buffer used was HBS (10 mM HEPES-NaOH, 150 mM NaCl, pH 7.4) containing 1 mM DTT, 10 mM MgCl2, 0.01% Tween 20, 10 µM GDP, and 4% DMSO.
Biotinylated Avi-tag fusion KRAS, NRAS, and HRAS proteins were expressed in E. coli BL21 (DE3) strains, and after cells were homogenized, they were purified using Streptavidin Mutein Matrix and Superdex 75. After purification, GDP-loaded KRAS, NRAS, and HRAS proteins were immobilized on the surface of Sensor Chip CAP (Cytiva) coated with Biotin CAPture Reagent in an immobilization amount of about 100 to 300 RU. Binding of each compound was evaluated by the Single Cycle Kinetics method, and a running buffer or a compound solution was added to the RAS protein non-immobilized surface and the immobilized surface to obtain a binding response. The flow rate was set to 100 µL/min, and in the compound-adding cycle, compound solutions having different concentrations were intermittently added for 75 seconds each, starting from a low concentration. […] In the blank cycle, a running buffer was intermittently added and not the compound solution. The Biotin CAPture Reagent and RAS proteins were immobilized for each cycle, and at the end of each cycle, the sensor chip was regenerated by the regeneration solution appended to the Biotin CAPture Kit (Cytiva). Measurement was carried out at 30°C.
The resulting sensorgram was subjected to curve fitting based on a 1:1 binding model on Biacore Insight Evaluation Software or T200 Evaluation Software, and thereby the dissociation constant KD of each compound with respect to KRAS, NRAS, and HRAS was determined. […] Blank indicates a compound from which the KD value with respect to NRAS or HRAS was not obtained.

[2] = tested on: human lung cancer strain NCI-H441; format: cell-based
In short: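 Step one: dispense the test compound in serial DMSO dilutions. Step three: add the reagent and measure […].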

[3] = molecular target: HRAS wild-type protein (Homo sapiens, UniProt P01112); assay: Binding to HRAS by surface plasmon resonance (SPR), KD and KD ratio to KRAS
In short: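 Captured GDP-RAS (~100–300 RU) was exposed to increasing compound concentrations, 75 s per step, in running buffer with 10 µM GDP, 10 mM MgCl2 and 4% DMSO at pH 7.4.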

[4] = ratio of KD for GDP-bound NRAS wild-type protein to KD for KRAS
[5] = ratio of KD for HRAS wild-type protein to KD for KRAS

GDP-bound NRAS wild-type protein, sequence (P01111 whole entry): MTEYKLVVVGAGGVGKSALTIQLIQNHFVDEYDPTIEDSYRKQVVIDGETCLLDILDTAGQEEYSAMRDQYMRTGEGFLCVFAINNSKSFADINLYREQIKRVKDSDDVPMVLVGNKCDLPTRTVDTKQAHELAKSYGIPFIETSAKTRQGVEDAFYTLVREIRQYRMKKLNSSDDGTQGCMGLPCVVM
HRAS wild-type protein, sequence (P01112 whole entry): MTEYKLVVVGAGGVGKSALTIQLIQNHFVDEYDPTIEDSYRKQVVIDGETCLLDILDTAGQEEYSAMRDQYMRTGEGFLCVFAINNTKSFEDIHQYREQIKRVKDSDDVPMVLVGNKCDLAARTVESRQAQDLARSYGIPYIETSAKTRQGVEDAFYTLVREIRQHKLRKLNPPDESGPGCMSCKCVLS

SMILES	pIC50 [2]	NRAS /KRAS ([1]; ratio of KD value for GDP-bound NRAS wild-type protein to KD value for KRAS (SPR))	HRAS /KRAS ([3]; ratio of KD value for HRAS wild-type protein to KD value for KRAS (SPR))	NRAS /KRAS [1, 4]	HRAS /KRAS [3, 5]	NRAS /KRAS ([1]; ratio of the KD value with respect to GDP-bound NRAS wild-type protein to the KD value with respect to KRAS)	HRAS /KRAS ([3]; ratio of the KD value with respect to HRAS wild-type protein to the KD value with respect to KRAS)
CCCN1C(=O)CN(C)C(=O)[C@@H]2CCN2C(=O)[C@H]([C@@H](C)CC)NC(=O)[C@H](CC(C)C)N(C)C(=O)C[C@@H](C(=O)N2CCOCC2)N(C)C(=O)[C@H](C2CCCC2)N(C)C(=O)C2(COC2)NC(=O)[C@@H]2CCCN2C(=O)[C@H](CCc2cc(F)c(C(F)(F)F)c(F)c2)NC(=O)CN(C)C(=O)[C@@H]1Cc1ccc(C(F)(F)F)cc1 [PP0782] ([NMeL]I[Aze][Sar][NPrPhe(4-CF3)][Sar][hPhe(3,5-F2-4-CF3)]P[Ac4c(3-oxa)][NMeGly(cPent)][NMeD]-Morpholide; lactam N-11)	6.37			B (a compound having 3 or more and less than 10 is denoted as B)	B (a compound having 3 or more and less than 10 is denoted as B)		
CCC[C@H]1C(=O)N[C@@H]([C@@H](C)CC)C(=O)N(C)CC(=O)N(C)[C@H]2C/C=C\CCN(C2=O)[C@@H](Cc2ccc(C(F)(F)F)cc2)C(=O)N(C)CC(=O)N[C@@H](CCc2ccc3ccn(C)c3c2)C(=O)N2C[C@H](OCC)C[C@H]2C(=O)NC2(CC(C)(C)C2)C(=O)N(C)[C@@H](C2CCCC2)C(=O)N(C)[C@H](C(=O)N(C)C)CC(=O)N1C [PP2901]	7.06			A (a compound having 10 or more and less than 20 is denoted as A)	A (a compound having 10 or more and less than 20 is denoted as A)		
CCC[C@H]1C(=O)N[C@@H]([C@@H](C)CC)C(=O)N(C)CC(=O)N(C)[C@H]2C/C=C\CCN(C2=O)[C@@H](Cc2ccc(C(F)(F)F)cc2)C(=O)N(C)CC(=O)N[C@@H](CCc2ccc(C(F)(F)F)c(C3CC3)c2)C(=O)N2C[C@H](OCC)C[C@H]2C(=O)NC2(CC(C)(C)C2)C(=O)N(C)[C@@H](C2CCCC2)C(=O)N(C)[C@H](C(=O)N(C)C)CC(=O)N1C [PP2852]	8.06			B (a compound having 3 or more and less than 10 is denoted as B)	B (a compound having 3 or more and less than 10 is denoted as B)		
CCO[C@@H]1C[C@H]2C(=O)NC3(CCC3)C(=O)N(C)[C@@H](C(CC)CC)C(=O)N(C)[C@H](C(=O)N3CCCCC3)CC(=O)N(C)[C@H]3CCCCC/C=C/c4ccc(cc4)C[C@@H](C(=O)N(C)CC(=O)N[C@@H](CCc4ccc(Cl)c(Cl)c4)C(=O)N2C1)N1CC/C=C\C[C@@H](C1=O)N(C)C(=O)CN(C)C(=O)[C@H]([C@@H](C)CC)NC3=O [PP3051]	7.38			AA (a compound having 20 or more is denoted as AA)	A (a compound having 10 or more and less than 20 is denoted as A)		
CCCN1C(=O)CN(C)C(=O)CN(C)C(=O)[C@H]([C@@H](C)CC)NC(=O)[C@H](CC(C)C)N(C)C(=O)C[C@@H](C(=O)N2CCOCC2)N(C)C(=O)[C@H](C2CCCC2)N(C)C(=O)C2(CCC2)NC(=O)[C@H](C)N(C)C(=O)[C@H](CCc2ccc(C(F)(F)F)c(Cl)c2)NC(=O)CN(C)C(=O)[C@@H]1Cc1ccc(C(F)(F)F)cc1 [PP1916] ([NMeL]I[Sar][Sar][NPrPhe(4-CF3)][Sar][hPhe(3-Cl-4-CF3)][NMeA][Ac4c][NMeGly(cPent)][NMeD]-Morpholide; lactam N-11)	7.77					B (a compound having 3 or more and less than 10 is denoted as B)	C (A compound having a KD ratio of 0.1 or more and less than 3 is denoted as C)

Continued by rising pIC50 [2], values first:

pIC50 [2]	SMILES	NRAS /KRAS ([1]; ratio of KD value for GDP-bound NRAS wild-type protein to KD value for KRAS (SPR))	HRAS /KRAS ([3]; ratio of KD value for HRAS wild-type protein to KD value for KRAS (SPR))	NRAS /KRAS [1, 4]	HRAS /KRAS [3, 5]	NRAS /KRAS ([1]; ratio of the KD value with respect to GDP-bound NRAS wild-type protein to the KD value with respect to KRAS)	HRAS /KRAS ([3]; ratio of the KD value with respect to HRAS wild-type protein to the KD value with respect to KRAS)
6.84	CCO[C@@H]1C[C@H]2C(=O)NC3(CCC3)C(=O)N(C)[C@@H](C(CC)CC)C(=O)N(C)[C@H](CC)CC(=O)N(C)[C@@H](CC3CC3)C(=O)N[C@@H]([C@@H](C)CC)C(=O)N(C)CC(=O)N(C)[C@H]3C/C=C\CCN(C3=O)[C@@H](Cc3ccc(C(F)(F)F)cc3)C(=O)N(C)CC(=O)N[C@@H](CCc3cc(F)c(C(F)(F)F)c(F)c3)C(=O)N2C1 [PP1630]	A (a compound having 10 or more and less than 20 is denoted as A)	A (a compound having 10 or more and less than 20 is denoted as A)				
7.08	CCCN1C(=O)CN(C)C(=O)[C@@H]2CCN2C(=O)[C@H]([C@@H](C)CC)NC(=O)[C@H](CC(C)C)N(C)C(=O)C[C@@H](C(=O)N2CCOCC2)N(C)C(=O)[C@H](C2CCCC2)N(C)C(=O)C2(CCCC2)NC(=O)[C@@H]2CC(F)(F)CCN2C(=O)[C@H](CCc2ccc(C(F)(F)F)c(Cl)c2)NC(=O)CN(C)C(=O)[C@@H]1Cc1ccc(C(F)(F)F)cc1 [PP0312] ([NMeL]I[Aze][Sar][NPrPhe(4-CF3)][Sar][hPhe(3-Cl-4-CF3)][Pip(4,4-F2)][Ac5c][NMeGly(cPent)][NMeD]-Morpholide; lactam N-11)			B (a compound having 3 or more and less than 10 is denoted as B)	B (a compound having 3 or more and less than 10 is denoted as B)		
